Here are results for 8 compounds from patent US9520611B2, “Redox flow battery” (SAMSUNG ELECTRONICS CO., LTD., priority 2013, dated 2016).

Read-outs that look alike come from different tables or passages of the source.

Data set [1] in a line: Cyclic voltammetry of organic electrolytic solution. It counts as physicochemical. To be noted: unit inferred; Ag/Ag+ reference electrode (0.3 M AgNO3 in acetonitrile), carbon felt working electrode. An excerpt: For the purpose of measurement of cyclic voltammetry, a cell that includes an Ag/Ag^+ electrode prepared by dissolving 0.3 M AgNO3 in an acetonitrile solvent as a reference electrode, a carbon felt as a working electrode, and platinum as a counter electrode was used.
Referring to FIGS. 2A to 2C, the graphs of an electrolyte including a metal-ligand coordination compound show a reversible oxidation/reduction peak.

Data set [2] is described as follows: Solubility measurement in a non-aqueous polar solvent. It counts as physicochemical. The procedure:
A density of the solution was measured and calculated in a molar concentration.

Setting [3] is: in 50 mL acetonitrile and propylene carbonate 1:1, calculated in a molar concentration, unit not given.

Regarding `Cc1ccnc(-c2cc(C)ccn2)c1.Cc1ccnc(-c2cc(C)ccn2)c1.O=S(=O)([N-]S(=O)(=O)C(F)(F)F)C(F)(F)F.O=S(=O)([N-]S(=O)(=O)C(F)(F)F)C(F)(F)F.[Fe+2].c1ccc(-c2ccccn2)nc1` [Preparation Example 1, Fe^2+-(4,4′-diMebpy)2 (bpy) [TFSI]2], the E^0 in data set [1] stood at 0.56 V.

The compound `O=S(=O)([N-]S(=O)(=O)C(F)(F)F)C(F)(F)F.O=S(=O)([N-]S(=O)(=O)C(F)(F)F)C(F)(F)F.O=[N+]([O-])c1cc2cccnc2c2ncccc12.[Fe+2].c1ccc(-c2ccccn2)nc1.c1ccc(-c2ccccn2)nc1` [Preparation Example 2, Fe^2+-(5-NO2-phenanthroline)(bpy)2 [TFSI]2] had an E^0 in data set [1] of 0.72 V.

`Clc1cc(-c2ccccn2)nc(-c2ccccn2)c1.O=S(=O)([N-]S(=O)(=O)C(F)(F)F)C(F)(F)F.O=S(=O)([N-]S(=O)(=O)C(F)(F)F)C(F)(F)F.[Fe+2].c1ccc(-c2cccc(-c3ccccn3)n2)nc1` [Preparation Example 3, Fe^2+-(terpy)(4′-chloro-terpy) [TFSI]2] gave an E^0 in data set [1] of 0.72 V. In data set [2], the Solubility is 1.33 and the “Solubility compared with the compounds that include identical ligands (dipole moment sum 0)” value is given as “higher solubility”.

Turning to `O=S(=O)([N-]S(=O)(=O)C(F)(F)F)C(F)(F)F.O=S(=O)([N-]S(=O)(=O)C(F)(F)F)C(F)(F)F.[Fe+2].c1ccc(-c2ccccn2)nc1.c1ccc(-c2ccccn2)nc1.c1ccc(-c2ccccn2)nc1` [Preparation Example 4, Fe^2+-(bpy)3 [TFSI]2], the E^0 in data set [1] came to 0.68 V.

In data set [1], `Cc1ccnc(-c2cc(C)ccn2)c1.Cc1ccnc(-c2cc(C)ccn2)c1.Cc1ccnc(-c2cc(C)ccn2)c1.O=S(=O)([N-]S(=O)(=O)C(F)(F)F)C(F)(F)F.O=S(=O)([N-]S(=O)(=O)C(F)(F)F)C(F)(F)F.[Fe+2]` [Preparation Example 5, Fe^2+-(4,4′-diMe-bpy)3 [TFSI]2] had an E^0 of 0.43 V. In addition, in data set [2], the Solubility was determined as 0.65.

As for `O=S(=O)([N-]S(=O)(=O)C(F)(F)F)C(F)(F)F.O=S(=O)([N-]S(=O)(=O)C(F)(F)F)C(F)(F)F.[Fe+2].c1ccc(-c2cccc(-c3ccccn3)n2)nc1.c1ccc(-c2cccc(-c3ccccn3)n2)nc1` [Preparation Example 7, Fe^2+-(terpy)2 [TFSI]2], the E^0 in data set [1] came out at 0.7 V. Besides, in data set [2] (setting [3]), the Solubility is 1.20.

Take `Clc1cc(-c2ccccn2)nc(-c2ccccn2)c1.Clc1cc(-c2ccccn2)nc(-c2ccccn2)c1.O=S(=O)([N-]S(=O)(=O)C(F)(F)F)C(F)(F)F.O=S(=O)([N-]S(=O)(=O)C(F)(F)F)C(F)(F)F.[Fe+2]` [Preparation Example 8, Fe^2+-(4′-chloro-terpy)2 [TFSI]2]: the E^0 in data set [1] was 0.78 V. For the same compound, the Solubility in data set [2] (setting [3]) is recorded as 0.75.

Regarding “Fe^2+-(NO2-phenanthroline)3 [TFSI]2 [Preparation Example 6]”, the E^0 in data set [1] amounted to 0.88 V. The Solubility in data set [2] was found to be 1020 mM.
